Target: FGFR2 (Homo sapiens, UniProt P21802)
Assay: FGFR wild type enzyme assay (HTRF KinEASE-TK), FGFR2
Conditions: Enz FGFR2 (nM), FGFR2 wild type enzyme assay
Procedure: Activity against FGFR wild type and mutant enzymes were determined in biochemical assays using purified intracellular domains of the respective isoforms using HTRF KinEASE-TK assay technology from CisBio, now PerkinElmer. (Catalogue number 62TK0PEC). Briefly test compounds were tested in 11 point 1:3 serial dilutions, typical final concentration ranges from 10,000 nM to 0.17 nM. Test compounds were dissolved in DMSO and added to assay plates using acoustic transfer. Enzyme was pre-incubated with test compound for 30 minutes and the assay was initiated by addition of ATP and TK-peptide substrate. After 60 minutes at room temperature the reaction was quenched with detection reagent and incubated for an additional 60 minutes at room temperature. The plates were read using a multimode reader and the emission ratio of 665 nm to 615 nm was determined. This ratio was converted to percent of control (POC). [1-(high control-sample signal)/(high control-low control)]*100. Wells without compound were used to determine high control values and wells without enzyme were used to determine low control values. The POC values were fit using a four-parameter logistic model and the value where the fit curve was equal to 50 POC was reported as the IC50 using the Signals Vitro Vivo software package (PerkinElmer). Final assay conditions were: 50 mM HEPES pH7.5, 10 mM MgCl2, 1 mM EDTA, 0.01% Brij-35, 2 mM MnCl2, 1 mM DTT, and 0.5 uM TK-peptide.

Sequence of FGFR2 (P21802 399-821 limits assumed): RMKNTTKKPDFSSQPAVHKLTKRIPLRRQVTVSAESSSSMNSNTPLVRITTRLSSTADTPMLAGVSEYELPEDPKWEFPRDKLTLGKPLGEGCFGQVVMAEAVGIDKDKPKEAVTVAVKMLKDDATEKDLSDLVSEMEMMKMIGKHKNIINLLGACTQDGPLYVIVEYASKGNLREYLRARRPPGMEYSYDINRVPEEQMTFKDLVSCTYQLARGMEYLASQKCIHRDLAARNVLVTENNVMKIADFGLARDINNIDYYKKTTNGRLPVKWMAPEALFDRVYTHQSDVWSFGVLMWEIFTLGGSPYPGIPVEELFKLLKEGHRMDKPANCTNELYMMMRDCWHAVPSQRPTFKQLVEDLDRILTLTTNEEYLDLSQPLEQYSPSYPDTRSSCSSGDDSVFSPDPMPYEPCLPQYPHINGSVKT

Compound	IC50
N#Cc1cc(F)ccc1Sc1cc(-c2ccc(N3CC[C@@H](O)C3)nc2)cn2ncc(C#N)c12 [Example 627, (R)-4-((2-cyano-4-fluorophenyl)thio)-6-(6-(3-hydroxypyrrolidin-1-yl)pyridin-3-yl)pyrazolo[1,5-a]pyridine-3-carbonitrile]	2 nM
N#Cc1cc(F)ccc1Sc1cc(-c2ccc(N3C[C@@H](O)[C@H](O)C3)nc2)cn2ncc(C#N)c12 [Example 629, 4-((2-cyano-4-fluorophenyl)thio)-6-(6-((3R,4R)-3,4-dihydroxypyrrolidin-1-yl)pyridin-3-yl)pyrazolo[1,5-a]pyridine-3-carbonitrile]	1.6 nM
Cc1c(-c2cc(Sc3ccc(F)cc3C#N)c3c(C#N)cnn3c2)cnn1[C@@H]1CCCC[C@H]1O [Example 632, 4-((2-cyano-4-fluorophenyl)thio)-6-(1-((1R,2R)-2-hydroxycyclohexyl)-5-methyl-1H-pyrazol-4-yl)pyrazolo[1,5-a]pyridine-3-carbonitrile]	32 nM
N#Cc1ccccc1Sc1cc(-c2c[nH]nn2)cn2ncc(C#N)c12 [Example 637, 4-((2-cyanophenyl)thio)-6-(1H-1,2,3-triazol-4-yl)pyrazolo[1,5-a]pyridine-3-carbonitrile]	12 nM
Cn1cc(-c2cc(Sc3ccccc3C#N)c3c(C#N)cnn3c2)ccc1=O [Example 638, 4-((2-cyanophenyl)thio)-6-(1-methyl-6-oxo-1,6-dihydropyridin-3-yl)pyrazolo[1,5-a]pyridine-3-carbonitrile]	18 nM
CN(CCO)c1ccc(-c2cc(Sc3ccc(F)cc3C#N)c3c(C#N)cnn3c2)cn1 [Example 639, 4-((2-cyano-4-fluorophenyl)thio)-6-(6-((2-hydroxyethyl)(methyl)ami-no)pyridin-3-yl)pyrazolo[1,5-a]pyridine-3-carbonitrile]	1.5 nM
N#Cc1cc(F)ccc1Sc1cc(-c2ccc(NCCO)nc2)cn2ncc(C#N)c12 [Example 640, 4-((2-cyano-4-fluorophenyl)thio)-6-(6-((2-hydroxyethyl)amino)pyridin-3-yl)pyrazolo[1,5-a]pyridine-3-carbonitrile]	2.5 nM
Cn1cc(-c2cc(Sc3ccccc3C#N)c3c(C#N)cnn3c2)c(N)n1 [Example 642, 6-(3-amino-1-methyl-1H-pyrazol-4-yl)-4-((2-cyanophenyl)thio)pyrazolo [1,5-a]pyridine-3-carbonitrile]	2 nM
Cc1c(-c2cc(Sc3ccccc3C#N)c3c(C#N)cnn3c2)cnn1[C@@H]1CCNC(=O)C1 [Example 643]	3 nM
Cc1c(-c2cc(Sc3ccccc3C#N)c3c(C#N)cnn3c2)cnn1[C@H]1CCNC(=O)C1 [Example 644]	1.6 nM
CC(=O)NC1CCN(c2ccc(-c3cc(Sc4ccc(F)cc4C#N)c4c(C#N)cnn4c3)cn2)C1 (stereo not shown) [Example 645]	1.6 nM
N#Cc1ccccc1Sc1cc(-c2cnn(CC(=O)N3CC[C@H](O)C3)c2)cn2ncc(C#N)c12 [Example 651, (S)-4-((2-cyanophenyl)thio)-6-(1-(2-(3-hydroxypyrrolidin-1-yl)-2-oxoethyl)-1H-pyrazol-4-yl)pyrazolo[1,5-a]pyridine-3-carbonitrile]	1 nM
N#Cc1ccccc1Sc1cc(-c2cnn(CC(=O)N3CC[C@@H](O)C3)c2)cn2ncc(C#N)c12 [Example 652, (R)-4-((2-cyanophenyl)thio)-6-(1-(2-(3-hydroxypyrrolidin-1-yl)-2-oxoethyl)-1H-pyrazol-4-yl)pyrazolo[1,5-a]pyridine-3-carbonitrile]	1 nM
CC(C)(O)CCn1cc(-c2cc(Sc3ccccc3C#N)c3c(C#N)cnn3c2)cn1 [Example 653, 4-((2-cyanophenyl)thio)-6-(1-(3-hydroxy-3-methylbutyl)-1H-pyrazol-4-yl)pyrazolo[1,5-a]pyridine-3-carbonitrile]	1 nM

More lines, now with the values ahead:

IC50	Compound
0.3 nM	CC1(C)C[C@H](n2cc(-c3cc(Sc4ccccc4C#N)c4c(C#N)cnn4c3)cn2)CCN1 [Example 620, (R)-4-((2-cyanophenyl)thio)-6-(1-(2,2-dimethylpiperidin-4-yl)-1H-pyrazol-4-yl)pyrazolo[1,5-a]pyridine-3-carbonitrile]
0.3 nM	CC1(C)C[C@@H](n2cc(-c3cc(Sc4ccccc4C#N)c4c(C#N)cnn4c3)cn2)CCN1 [Example 621, (S)-4-((2-cyanophenyl)thio)-6-(1-(2,2-dimethylpiperidin-4-yl)-1H-pyrazol-4-yl)pyrazolo[1,5-a]pyridine-3-carbonitrile]
0.5 nM	N#Cc1ccccc1Sc1cc(-c2cnn([C@@H]3CCC(=O)NC3)c2)cn2ncc(C#N)c12 [Example 622, (R)-4-((2-cyanophenyl)thio)-6-(1-(6-oxopiperidin-3-yl)-1H-pyrazol-4-yl)pyrazolo[1,5-a]pyridine-3-carbonitrile]
1 nM	N#Cc1ccccc1Sc1cc(-c2cnn([C@H]3CCC(=O)NC3)c2)cn2ncc(C#N)c12 [Example 623, (S)-4-((2-cyanophenyl)thio)-6-(1-(6-oxopiperidin-3-yl)-1H-pyrazol-4-yl)pyrazolo[1,5-a]pyridine-3-carbonitrile]
1 nM	N#Cc1ccccc1Sc1cc(-c2cnn(C3CCC3)c2)cn2ncc(C#N)c12 [Example 624, 4-((2-cyanophenyl)thio)-6-(1-cyclobutyl-1H-pyrazol-4-yl)pyrazolo[1,5-a]pyridine-3-carbonitrile]
1 nM	N#Cc1ccccc1Sc1cc(-c2cnn([C@H]3CCCNC3)c2F)cn2ncc(C#N)c12 [Example 625, (S)-4-((2-cyanophenyl)thio)-6-(5-fluoro-1-(piperidin-3-yl)-1H-pyrazol-4-yl)pyrazolo[1,5-a]pyridine-3-carbonitrile]
1 nM	N#Cc1cc(F)ccc1Sc1cc(-c2ccc(N3CC[C@H](O)C3)nc2)cn2ncc(C#N)c12 [Example 626, (S)-4-((2-cyano-4-fluorophenyl)thio)-6-(6-(3-hydroxypyrrolidin-1-yl)pyridin-3-yl)pyrazolo[1,5-a]pyridine-3-carbonitrile]
1 nM	N#Cc1cc(F)ccc1Sc1cc(-c2ccc(N3C[C@@H](O)[C@@H](O)C3)nc2)cn2ncc(C#N)c12 [Example 628, 4-((2-cyano-4-fluorophenyl)thio)-6-(6-((3R,4S)-3,4-dihydroxypyrrolidin-1-yl)pyridin-3-yl)pyrazolo[1,5-a]pyridine-3-carbonitrile]
1 nM	CC(=O)N1CCC[C@H](n2cc(-c3cc(Sc4nc(C)c(F)cc4F)c4c(C#N)cnn4c3)cn2)C1 [Example 630, (S)-6-(1-(1-acetylpiperidin-3-yl)-1H-pyrazol-4-yl)-4-((3,5-difluoro-6-methylpyridin-2-yl)thio)pyrazolo[1,5-a]pyridine-3-carbonitrile]
1 nM	Cc1nc(Sc2cc(-c3cnn([C@H]4CCCNC4)c3)cn3ncc(C#N)c23)c(F)cc1F [Example 631, (S)-4-((3,5-difluoro-6-methylpyridin-2-yl)thio)-6-(1-(piperidin-3-yl)-1H-pyrazol-4-yl)pyrazolo[1,5-a]pyridine-3-carbonitrile]
1 nM	Cc1c(-c2cc(Sc3ccc(F)cc3C#N)c3c(C#N)cnn3c2)cnn1[C@H]1CCCC[C@@H]1O [Example 633, 4-((2-cyano-4-fluorophenyl)thio)-6-(1-((2S,2S)-2-hydroxycyclohexyl)-5-methyl-1H-pyrazol-4-yl)pyrazolo[1,5-a]pyridine-3-carbonitrile]
1 nM	Cc1c(-c2cc(Sc3ccc(F)cc3C#N)c3c(C#N)cnn3c2)cnn1[C@H]1CC[C@H](OC(=O)[C@H](C)N)CC1 [Example 634, (1r,4S)-4-(4-(3-cyano-4-((2-cyano-4 fluorophenyl)thio)pyrazolo [1,5-a]pyridin-6-yl)-5-methyl-1H-pyrazol-1-yl)cyclohexyl L-alaninate]
1 nM	Cc1c(-c2cc(Sc3ccc(F)cc3C#N)c3c(C#N)cnn3c2)cnn1[C@H]1CC[C@H](OC(=O)[C@H](N)C(C)C)CC1 [Example 635, (1r,4R)-4-(4-(3-cyano-4-((2-cyano-4-fluorophenyl)thio)pyrazolo [1,5-a]pyridin-6-yl)-5-methyl-1H-pyrazol-1-yl)cyclohexyl D-valinate]
1 nM	Cc1c(-c2cc(Sc3ccc(F)cc3C#N)c3c(C#N)cnn3c2)cnn1[C@H]1CC[C@H](OC(=O)CN)CC1 [Example 636, (1r,4r)-4-(4-(3-cyano-4-((2-cyano-4-fluorophenyl)thio)pyrazolo [1,5-a]pyridin-6-yl)-5-methyl-1H-pyrazol-1-yl)cyclohexyl glycinate]
1 nM	[2H]C([2H])([2H])n1cc(-c2cc(Sc3ccccc3C#N)c3c(C#N)cnn3c2)cn1 [Example 641, 4-((2-cyanophenyl)thio)-6-(1-(methyl-d3)-1H-pyrazol-4-yl)pyrazolo[1,5-a]pyridine-3-carbonitrile]
1 nM	N#Cc1cc(F)ccc1Sc1cc(-c2ccc(N3CCOC(CO)C3)nc2)cn2ncc(C#N)c12 (stereo not shown) [Example 646, 4-((2-cyano-4-fluorophenyl)thio)-6-(6-(2-(hydroxymethyl)morpholi-no)pyridin-3-yl)pyrazolo[1,5-a]pyridine-3-carbonitrile]
1 nM	CN1C[C@@H](n2cc(-c3cc(Sc4ccccc4C#N)c4c(C#N)cnn4c3)cn2)CCC1=O [Example 647, (S)-4-((2-cyanophenyl)thio)-6-(1-(1-methyl-6-oxopiperidin-3-yl)-1H-pyrazol-4-yl)pyrazolo[1,5-a]pyridine-3-carbonitrile]
0.6 nM	N#Cc1ccccc1Sc1cc(-c2ccc(N3CCO[C@@H](CO)C3)nc2)cn2ncc(C#N)c12 [Example 648, (R)-4-((2-cyanophenyl)thio)-6-(6-(2-(hydroxymethyl)morpholi-no)pyridin-3-yl)pyrazolo[1,5-a]pyridine-3-carbonitrile]
0.5 nM	N#Cc1ccccc1Sc1cc(-c2ccc(N3CCO[C@H](CO)C3)nc2)cn2ncc(C#N)c12 [Example 649, (S)-4-((2-cyanophenyl)thio)-6-(6-(2-(hydroxymethyl)morpholi-no)pyridin-3-yl)pyrazolo[1,5-a]pryidine-3-carbonitrile]
1 nM	N#Cc1ccccc1Sc1cc(-c2cnn(CC[C@@H](O)CO)c2)cn2ncc(C#N)c12 [Example 650, (R)-4-((2-cyanophenyl)thio)-6-(1-(3,4-dihydroxybutyl)-1H-pyrazol-4-yl)pyrazolo[1,5-a]pyridine-3-carbonitrile]

From patent US20240270741A1 (Cogent Biosciences, Inc., priority 2023, published 2024)
